Measurements: ChEMBL document CHEMBL1143192, “Anti-HIV-1 entry optimization of novel imidazopiperidine-tropane CCR5 antagonists” (Bioorg Med Chem Lett, 2008)

How the values were obtained:
Type in all cases: ADME, organism-based
[1] = AUC in rat at 5 mg/kg, iv; design: dose 5 mg/kg, route intravenous; conditions: plasma
[2] = Oral bioavailability in rat at 30 mg/kg; conditions: in vivo
[3] = Clearance in rat at 5 mg/kg, iv; design: dose 5 mg/kg, route intravenous; conditions: in vivo
[4] = AUC in rat at 30 mg/kg, po; design: dose 30 mg/kg, route oral; conditions: plasma
[5] = Cmax in rat at 5 mg/kg, iv; design: dose 5 mg/kg, route intravenous; conditions: in vivo
[6] = Half life in rat at 30 mg/kg, po; design: dose 30 mg/kg, route oral; conditions: in vivo
[7] = Half life in rat at 5 mg/kg, iv; design: dose 5 mg/kg, route intravenous; conditions: in vivo
[8] = Cmax in rat at 30 mg/kg, po; design: dose 30 mg/kg, route oral; conditions: in vivo

AUC [1]: 2890 ng·h/mL
bioavailability [2]: 52%
clearance [3]: 28.8 mL/min/kg
AUC [4]: 8990 ng·h/mL
Cmax [5]: 860 ng/mL
half-life [6]: 7.2 h
half-life [7]: 10.7 h
Cmax [8]: 540 ng/mL
Structure (SMILES): CC(=O)N1CCc2c(nc(C)n2[C@@H]2C[C@H]3CC[C@@H](C2)N3CCCN(C(=O)Nc2ccc(C(F)(F)F)cc2)c2ccccc2)C1
